Results taken from ChEMBL document CHEMBL1148985, “27-norlanostane glycosides from the bulbs of Muscari paradoxum” (J Nat Prod, 2004).
Active and inactive are the calls of the source. The calls are words filed in the database; no cut-off is given here.

system: HSC-2; assay: Cytotoxicity against human HSC2 cells assessed as cell viability after 24 hrs; type: functional, cell-based; details: HSC-2, 24 h

Compound	IC50
CCC(=O)[C@@H]1C[C@@H](C)[C@]2(CC(=O)[C@@]3(C)C4=C(CC[C@@]32C)[C@@]2(C)CC[C@H](O[C@@H]3O[C@H](CO[C@@H]5OC[C@H](O)[C@H](O)[C@H]5O[C@@H]5O[C@H](CO)[C@@H](O)[C@H](O)[C@H]5O[C@@H]5OC[C@](O)(CO)[C@H]5O)[C@@H](O)[C@H](O)[C@H]3O)[C@](C)(CO)[C@@H]2CC4)O1	6.2 µM
CCC(=O)[C@@H]1C[C@@H](C)[C@]2(CC[C@@]3(C)C4=C(CC[C@@]32C)[C@@]2(C)CC[C@H](O[C@@H]3O[C@H](CO[C@@H]5OC[C@H](O)[C@H](O)[C@H]5O[C@@H]5O[C@H](CO)[C@@H](O)[C@H](O[C@@H]6OC[C@H](O)[C@H](O)[C@H]6O[C@@H]6OC[C@@H](O)[C@H](O)[C@H]6O)[C@H]5O[C@@H]5O[C@@H](C)[C@H](O)[C@@H](O)[C@H]5O)[C@@H](O)[C@H](O)[C@H]3O)[C@](C)(CO)[C@@H]2CC4)O1	7.3 µM
CCC(=O)[C@@H]1C[C@@H](C)[C@]2(CC(=O)[C@@]3(C)C4=C(CC[C@@]32C)[C@@]2(C)CC[C@H](O[C@@H]3O[C@H](CO[C@@H]5OC[C@H](O)[C@H](O)[C@H]5O[C@@H]5O[C@H](CO)[C@@H](O)[C@H](O)[C@H]5O[C@@H]5O[C@@H](C)[C@H](O)[C@@H](O)[C@H]5O)[C@@H](O)[C@H](O)[C@H]3O)[C@](C)(CO)[C@@H]2CC4)O1	63 µM
CCC(=O)[C@@H]1C[C@@H](C)[C@]2(CC(=O)[C@@]3(C)C4=C(CC[C@@]32C)[C@@]2(C)CC[C@H](O[C@@H]3O[C@H](CO[C@@H]5OC[C@H](O)[C@H](O)[C@H]5O[C@@H]5O[C@H](CO)[C@@H](O)[C@H](O[C@@H]6OC[C@H](O)[C@H](O)[C@H]6O[C@@H]6OC[C@@H](O)[C@H](O)[C@H]6O)[C@H]5O[C@@H]5O[C@@H](C)[C@H](O)[C@@H](O)[C@H]5O)[C@@H](O)[C@H](O)[C@H]3O)[C@](C)(CO)[C@@H]2CC4)O1	19 µM
CCC(=O)[C@@H]1C[C@@H](C)[C@]2(CC[C@@]3(C)C4=C(CC[C@@]32C)[C@@]2(C)CC[C@H](O[C@@H]3O[C@H](CO[C@@H]5OC[C@H](O)[C@H](O)[C@H]5O[C@@H]5O[C@H](CO)[C@@H](O)[C@H](O)[C@H]5O[C@@H]5O[C@@H](C)[C@H](O)[C@@H](O)[C@H]5O)[C@@H](O)[C@H](O)[C@H]3O)[C@](C)(CO)[C@@H]2CC4)O1	32 µM

system: HSC-2; assay: Cytotoxicity against human HSC2 cells assessed as cell viability up to 100 uM after 24 hrs; type: functional, cell-based; details: not given

Compound	Activity
CCC(=O)[C@H]1C[C@@H](C)[C@]2(CC(=O)[C@@]3(C)C4=C(CC[C@@]32C)[C@@]2(C)CC[C@H](O[C@@H]3O[C@H](CO[C@@H]5OC[C@H](O)[C@H](O)[C@H]5O[C@@H]5O[C@H](CO)[C@@H](O)[C@H](O)[C@H]5O[C@@H]5OC[C@](O)(CO)[C@H]5O)[C@@H](O)[C@H](O)[C@H]3O)[C@](C)(CO)[C@@H]2CC4)O1	inactive
CCC(=O)[C@H]1C[C@@H](C)[C@]2(CC(=O)[C@@]3(C)C4=C(CC[C@@]32C)[C@@]2(C)CC[C@H](O[C@@H]3O[C@H](CO[C@@H]5OC[C@H](O)[C@H](O)[C@H]5O[C@@H]5O[C@H](CO)[C@@H](O)[C@H](O)[C@H]5O[C@@H]5O[C@@H](C)[C@H](O)[C@@H](O)[C@H]5O)[C@@H](O)[C@H](O)[C@H]3O)[C@](C)(CO)[C@@H]2CC4)O1	inactive
CCC(=O)[C@H]1C[C@@H](C)[C@]2(CC(=O)[C@@]3(C)C4=C(CC[C@@]32C)[C@@]2(C)CC[C@H](O[C@@H]3O[C@H](CO[C@@H]5OC[C@H](O)[C@H](O)[C@H]5O[C@@H]5O[C@H](CO)[C@@H](O)[C@H](O[C@@H]6OC[C@H](O)[C@H](O)[C@H]6O[C@@H]6OC[C@@H](O)[C@H](O)[C@H]6O)[C@H]5O[C@@H]5O[C@@H](C)[C@H](O)[C@@H](O)[C@H]5O)[C@@H](O)[C@H](O)[C@H]3O)[C@](C)(CO)[C@@H]2CC4)O1	inactive
